Assay results as given in patent US7687484B2, “Transporter enhanced corticosteroid activity” (priority 2006, dated 2010).
Where two headings read alike, the source gives them in different places.

Key:
[1] = logP reported in literature; cited from earlier work
[2] = molecular target: T1, glucocorticoid receptor (Homo sapiens, UniProt P04150); assay: Relative binding affinity for the glucocorticoid receptor (GCR/GR); conditions: GRs were calculated from RBAs; read-out: GR Est. IC50
T1 sequence (P04150 1-777): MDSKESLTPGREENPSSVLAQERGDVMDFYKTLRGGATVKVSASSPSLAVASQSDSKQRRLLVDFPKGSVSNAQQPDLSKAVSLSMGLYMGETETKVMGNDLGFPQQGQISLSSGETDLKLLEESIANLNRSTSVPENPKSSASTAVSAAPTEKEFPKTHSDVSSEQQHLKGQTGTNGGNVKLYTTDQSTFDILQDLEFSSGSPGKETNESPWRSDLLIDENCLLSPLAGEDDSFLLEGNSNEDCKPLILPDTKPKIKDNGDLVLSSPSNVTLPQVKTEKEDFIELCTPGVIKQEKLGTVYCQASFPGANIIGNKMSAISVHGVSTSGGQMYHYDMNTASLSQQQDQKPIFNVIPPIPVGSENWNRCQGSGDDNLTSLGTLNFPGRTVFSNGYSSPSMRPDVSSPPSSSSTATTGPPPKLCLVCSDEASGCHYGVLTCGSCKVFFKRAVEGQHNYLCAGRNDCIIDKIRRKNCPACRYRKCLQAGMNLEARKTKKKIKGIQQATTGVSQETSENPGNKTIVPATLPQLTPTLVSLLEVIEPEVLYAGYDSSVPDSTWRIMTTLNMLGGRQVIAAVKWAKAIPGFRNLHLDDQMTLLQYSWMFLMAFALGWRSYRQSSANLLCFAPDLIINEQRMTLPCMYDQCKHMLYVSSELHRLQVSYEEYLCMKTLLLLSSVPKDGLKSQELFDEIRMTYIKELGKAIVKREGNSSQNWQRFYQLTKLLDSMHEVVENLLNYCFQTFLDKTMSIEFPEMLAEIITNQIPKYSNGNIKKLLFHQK

[3] = molecular target: T1, glucocorticoid receptor; conditions: cited from earlier work
[4] = molecular target: T2, transcortin (CBG) (Homo sapiens, UniProt P08185); assay: Binding of corticosteroids to transcortin: 3H-cortisol competition in charcoal-treated diluted plasma
T2 construct: from tissue; host or cells: plasma from venous blood of healthy volunteers, charcoal-treated, diluted 100-fold
T2 sequence (P08185 23-405): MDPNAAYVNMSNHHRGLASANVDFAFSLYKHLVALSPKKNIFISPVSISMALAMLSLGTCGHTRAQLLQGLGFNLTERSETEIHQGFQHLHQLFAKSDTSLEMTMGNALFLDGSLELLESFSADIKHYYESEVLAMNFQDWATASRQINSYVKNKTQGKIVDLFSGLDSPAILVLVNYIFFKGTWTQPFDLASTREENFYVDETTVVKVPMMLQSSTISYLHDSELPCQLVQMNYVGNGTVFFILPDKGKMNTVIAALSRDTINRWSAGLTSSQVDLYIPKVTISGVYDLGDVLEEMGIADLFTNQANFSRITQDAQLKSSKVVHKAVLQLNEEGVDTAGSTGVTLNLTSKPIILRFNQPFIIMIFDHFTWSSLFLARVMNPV
Description: Experimental procedure: Venous blood was collected from healthy volunteers into heparin-containing tubes (5 Us/100 ml serum) and cells were separated from plasma by centrifugation (1500 g for 15 min). […] Charcoal-treated plasma was diluted 100-fold with binding buffer (10 mM Tris-HCl; 2 mM DTT (dithiotreitol); 1.5 mM EDTA; 0.02 M Na2MoO4; 10% Glycerol; pH 7.4) and was stored aliquoted at −80° C. […] The assay ingredients were mixed and the tubes were incubated for 1 hour on ice. At the end of the incubation, 0.2 ml of charcoal suspension (0.5% Norit A and 0.05% BSA) was added to each tube. The tubes were briefly agitated and incubated for an additional 10 min at 0° C. They were then centrifuged for 10 min at 15 000 g, and the same aliquots from the clear supernatants were quantitatively decanted into counting vials and combined with 3 ml of toluene-based scintillation fluid. […] Specific binding and IC50-values were calculated.

[5] = test system: forearms of human volunteers; assay: Human vasoconstriction (blanching) testing; assay type: in vivo; design: key to Vasoconstriction activity (total score of 4 tests): sum of 4 tests, each 0 = normal skin to 4 = very intense pallor
Description: Solutions of LE, HC and PRN (0.1 or 1 mM) alone, or mixtures of LE and HC (0.1+0.1 mM, or 1+1 mM), or LE and PRN (0.1+0.1 mM, or 1+1 mM) were prepared with a vehicle containing absolute ethanol and propylene glycol (9:1). […] After evaporation of ethanol (20 min), the films were applied to the forearms of human volunteers for 4 hours. Subsequently, the vasoconstriction reaction was read and judged by the appearance of pallor at various time intervals after the removal of the discs and films. The grading scale was as follows: 0, normal skin; 1, slight pallor; 2, pallor with at least two corners outlined; 3, even pallor with a clear outlined of the application sites; 4, very intense pallor. Due to the relatively high variations in response between the volunteers, a total score of 4 tests at each time point was taken for the activity evaluation.

[6] = anti-inflammatory activity, LE vs hydrocortisone; cited from earlier work

In the case of `CCOC(=O)O[C@]1(C(=O)OCCl)CC[C@H]2[C@@H]3CCC4=CC(=O)C=C[C@]4(C)[C@H]3[C@@H](O)C[C@@]21C` [Loteprednol etabonate, chloromethyl 17α-ethoxycarbonyloxy-11β-hydroxyandrosta-1,4-dien-3-one-17β-carboxylate], the logP [1] is listed as 3.03, the IC50 [2] is listed as 4 nM and the “Intrinsic activity in in vitro receptor binding studies (in words)” value ([3]; Druzgala et al. 1991, [3H]-triamcinolone acetonide tracer, 10^−5M cortienic acid as competitor) is listed as “intrinsically active”. For the same compound, the “rBA (relative receptor binding affinity)” value ([3]; relative to dexamethasone = 100, average of all values if multiple available) was 150, the IC50 ([4]; 3 nM 3H-cortisol, 1 hour on ice, plasma diluted 100-fold, read-out: IC50-values (nM) average ± SEM (n)) was 272 ± 27 nM and the IC50 ([4]; estimated, unpublished results Bodor, Kurucz 2006, read-out: CBG Est. IC50) was 270 nM. For the same compound, the “Vasoconstriction activity (total score of 4 tests)” value ([5]; 0.1 mM, 2 hr after removal, 4 h application) was 2, the “Vasoconstriction activity (total score of 4 tests)” value ([5]; 0.1 mM, 4 hr after removal) was 3 and the “Vasoconstriction activity (total score of 4 tests)” value ([5]; 0.1 mM, 6 hr after removal) was 5. For the same compound, the “Vasoconstriction activity (total score of 4 tests)” value ([5]; 0.1 mM, 8 hr after removal) was 5, the “Vasoconstriction activity (total score of 4 tests)” value ([5]; 0.1 mM, 10 hr after removal) was 3 and the “Vasoconstriction activity (total score of 4 tests)” value ([5]; 0.1 mM, 16 hr after removal) was 1. The “Vasoconstriction activity (total score of 4 tests)” value ([5]; 0.1 mM, 18 hr after removal) was 1, the “Vasoconstriction activity (total score of 4 tests)” value ([5]; 0.1 mM, 24 hr after removal) was 1 and the “Vasoconstriction activity (total score of 4 tests)” value ([5]; 1 mM, 2 hr after removal, 4 h application) was 6. For the same compound, the “Vasoconstriction activity (total score of 4 tests)” value ([5]; 1 mM, 4 hr after removal) was 7, the “Vasoconstriction activity (total score of 4 tests)” value ([5]; 1 mM, 6 hr after removal) was 8 and the “Vasoconstriction activity (total score of 4 tests)” value ([5]; 1 mM, 8 hr after removal) was 8. The “Vasoconstriction activity (total score of 4 tests)” value ([5]; 1 mM, 10 hr after removal) was 9, the “Vasoconstriction activity (total score of 4 tests)” value ([5]; 1 mM, 16 hr after removal) was 6 and the “Vasoconstriction activity (total score of 4 tests)” value ([5]; 1 mM, 18 hr after removal) was 5. The “Vasoconstriction activity (total score of 4 tests)” value ([5]; 1 mM, 24 hr after removal) was 2, the “Vasoconstriction activity alone (in words)” value ([5]; by itself, concentration range 0.1 to 1 mM, human skin) was “good vasoconstriction activity” and the “Increase of vasoconstriction activity of LE by addition of the same amount of HC or PRN” value ([5]; co-administration of 0.1 mM HC or PRN) was 60-80%. For the same compound, the “Increase of vasoconstriction activity of LE by addition of the same amount of HC or PRN” value ([5]; co-administration of 1 mM HC or PRN) was 60-75% and the “Activity relative to hydrocortisone” value [6] was “approximately 20 times”.
